Results: patent publication US20230348376A1 (TEIJIN PHARMA LIMITED, priority 2020, published 2023)

Biological target: T1, human VDR (Homo sapiens, UniProt P11473)
T1 sequence (P11473 1-427): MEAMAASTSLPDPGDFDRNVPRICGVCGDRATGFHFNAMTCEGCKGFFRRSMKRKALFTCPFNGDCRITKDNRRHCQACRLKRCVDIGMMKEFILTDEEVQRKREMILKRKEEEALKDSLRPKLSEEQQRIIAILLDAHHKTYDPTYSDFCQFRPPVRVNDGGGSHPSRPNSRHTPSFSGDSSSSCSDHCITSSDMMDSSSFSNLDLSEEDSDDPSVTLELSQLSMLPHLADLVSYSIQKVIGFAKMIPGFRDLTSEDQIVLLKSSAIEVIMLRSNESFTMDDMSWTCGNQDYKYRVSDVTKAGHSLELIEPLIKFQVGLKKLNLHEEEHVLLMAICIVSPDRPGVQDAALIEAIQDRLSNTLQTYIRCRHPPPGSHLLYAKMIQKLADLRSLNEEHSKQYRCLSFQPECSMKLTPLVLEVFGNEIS
T1 sequence (P19793 1-462 partner): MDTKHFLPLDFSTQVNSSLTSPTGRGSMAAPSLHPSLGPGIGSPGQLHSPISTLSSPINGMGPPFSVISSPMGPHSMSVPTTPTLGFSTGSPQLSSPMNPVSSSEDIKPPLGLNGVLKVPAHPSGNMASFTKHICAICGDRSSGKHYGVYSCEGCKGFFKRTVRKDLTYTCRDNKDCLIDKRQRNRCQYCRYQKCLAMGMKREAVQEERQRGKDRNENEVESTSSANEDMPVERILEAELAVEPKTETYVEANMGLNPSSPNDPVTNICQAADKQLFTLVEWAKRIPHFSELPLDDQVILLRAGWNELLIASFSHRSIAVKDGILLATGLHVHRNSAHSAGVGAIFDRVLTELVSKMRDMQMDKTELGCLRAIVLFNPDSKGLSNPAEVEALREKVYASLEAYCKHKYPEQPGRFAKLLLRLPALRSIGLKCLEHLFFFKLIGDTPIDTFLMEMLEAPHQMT
Assay: Evaluation of VDR transcription activity in human osteoblasts (HOS cells), luciferase reporter
Settings: Activity (EC50, VDR transcription activity), HOS cells transfected with human VDR, human RXRα and DR3 luciferase reporter; 21 hours

SMILES	EC50 [nM]
C=C1/C(=C\C=C2/CCC[C@]3(C)[C@@H]([C@H](C)CN4CC[C@H](OCC(F)F)C4)CC[C@@H]23)C[C@@H](O)C[C@@H]1O [Compound B053, (1R,3S,Z)-5-(2-((1R,3aS,7aR,E)-1-((S)-1-((S)-3-(2,2-difluoroethoxy)pyrrolidin-1-yl)propan-2-yl)-7a-methyloctahydro-4H-inden-4-ylidene)ethylidene)-4-methylenecyclohexane-1,3-diol]	10 to 100
C=C1/C(=C\C=C2/CCC[C@]3(C)[C@@H]([C@H](C)CN4CC(C(C)(F)F)C4)CC[C@@H]23)C[C@@H](O)[C@H](C)[C@@H]1O [Compound A008, (1R,2S,3S,Z)-5-(2-((1R,3aS,7aR,E)-1-((S)-1-(3-(1,1-difluoroethyl)azetidin-1-yl)propan-2-yl)-7a-methyloctahydro-4H-inden-4-ylidene)ethylidene)-2-methyl-4-methylenecyclohexane-1,3-diol]	10 to 100
C=C1C(O)CC(=C/C=C2\CCC[C@]3(C)[C@@H]([C@H](C)CN4CC[C@@](C)(O)C4)CC[C@@H]23)C[C@H]1O (stereo in doubt) [Compound B076, (1R,3S)-5-(2-((1R,3aS,7aR,E)-1-((S)-1-((R)-3-hydroxy-3-methylpyrrolidin-1-yl)propan-2-yl)-7a-methyloctahydro-4H-inden-4-ylidene)ethylidene)-2-methylenecyclohexane-1,3-diol]	10 to 100
C[C@H](CN1CC[C@H](F)C1)[C@H]1CC[C@H]2/C(=C/C=C3C[C@@H](O)C[C@H](O)C3)CCC[C@]12C [Compound B012, (1R,3R)-5-(2-((1R,3aS,7aR,E)-1-((S)-1-((S)-3-fluoropyrrolidin-1-yl)propan-2-yl)-7a-methyloctahydro-4H-inden-4-ylidene)ethylidene)cyclohexane-1,3-diol]	100 to 1000
C[C@@H](CN1CC[C@H](C(F)F)C1)[C@H]1CC[C@H]2/C(=C/C=C3CC(O)C[C@H](O)C3)CCC[C@]12C (stereo in doubt) [Compound B099, (1R,3S)-5-(2-((1R,3aS,7aR,E)-1-((R)-1-((S)-3-(difluoromethyl)pyrrolidin-1-yl)propan-2-yl)-7a-methyloctahydro-4H-inden-4-ylidene)ethylidene)cyclohexane-1,3-diol]	10 to 100
C[C@H](CCCN1CC[C@@H](F)C1)[C@H]1CC[C@H]2/C(=C/C=C3C[C@@H](O)C[C@H](O)C3)CCC[C@]12C [Compound B017, (1R,3R)-5-(2-((1R,3aS,7aR,E)-1-((R)-5-((R)-3-fluoropyrrolidin-1-yl)pentan-2-yl)-7a-methyloctahydro-4H-inden-4-ylidene)ethylidene)cyclohexane-1,3-diol]	10 to 100
C[C@H](CN1CC[C@@H](OC(F)F)C1)[C@H]1CC[C@H]2/C(=C/C=C3C[C@@H](O)C[C@H](O)C3)CCC[C@]12C [Compound B052, (1R,3R)-5-(2-((1R,3aS,7aR,E)-1-((S)-1-((R)-3-(difluoromethoxy)pyrrolidin-1-yl)propan-2-yl)-7a-methyloctahydro-4H-inden-4-ylidene)ethylidene)cyclohexane-1,3-diol]	10 to 100
C=C1/C(=C\C=C2/CCC[C@]3(C)[C@@H]([C@H](C)CN4CC[C@@H](C(C)(F)F)C4)CC[C@@H]23)C[C@@H](O)C[C@@H]1O [Compound B032, (1R,3S,Z)-5-(2-((1R,3aS,7aR,E)-1-((S)-1-((R)-3-(1,1-difluoroethyl)pyrrolidin-1-yl)propan-2-yl)-7a-methyloctahydro-4H-inden-4-ylidene)ethylidene)-4-methylenecyclohexane-1,3-diol]	1 to 10
C[C@H](CCN1CC[C@@H](F)C1)[C@H]1CC[C@H]2/C(=C/C=C3C[C@@H](O)C[C@H](O)C3)CCC[C@]12C [Compound B015, (1R,3R)-5-(2-((1R,3aS,7aR,E)-1-((R)-4-((R)-3-fluoropyrrolidin-1-yl)butan-2-yl)-7a-methyloctahydro-4H-inden-4-ylidene)ethylidene)cyclohexane-1,3-diol]	10 to 100
COC1(C(F)(F)F)CN(CC[C@@H](C)[C@H]2CC[C@H]3/C(=C/C=C4C[C@@H](O)C[C@H](O)C4)CCC[C@]23C)C1 [Compound A027, (1R,3R)-5-(2-((1R,3aS,7aR,E)-1-((R)-4-(3-methoxy-3-(trifluoromethyl)azetidin-1-yl)butan-2-yl)-7a-methyloctahydro-4H-inden-4-ylidene)ethylidene)cyclohexane-1,3-diol]	1 to 10

Results, then the compound that gave them:

EC50 [nM]	SMILES
10 to 100	C[C@@H](CN1CCC(O)(C(F)F)CC1)[C@H]1CC[C@H]2/C(=C/C=C3C[C@@H](O)C[C@H](O)C3)CCC[C@]12C [Compound C025, (1R,3R)-5-(2-((1R,3aS,7aR,E)-1-((R)-1-(4-(difluoromethyl)-4-hydroxypiperidin-1-yl)propan-2-yl)-7a-methyloctahydro-4H-inden-4-ylidene)ethylidene)cyclohexane-1,3-diol]
10 to 100	C=C1/C(=C\C=C2/CCC[C@]3(C)[C@@H]([C@H](C)CN4CCC(C(F)(F)F)CC4)CC[C@@H]23)C[C@@H](O)[C@H](C)[C@@H]1O [Compound C010, (1R,2S,3S,Z)-2-methyl-5-(2-((1R,3aS,7aR,E)-7a-methyl-1-((S)-1-(4-(trifluoromethyl)piperidin-1-yl)propan-2-yl)octahydro-4H-inden-4-ylidene)ethylidene)-4-methylenecyclohexane-1,3-diol]
100 to 1000	C=C1/C(=C\C=C2/CCC[C@]3(C)[C@@H]([C@@H](C)CN4CCC(C)(O)CC4)CC[C@@H]23)C[C@@H](O)C[C@@H]1O [Compound C029, (1R,3S,Z)-5-(2-((1R,3aS,7aR,E)-1-((R)-1-(4-hydroxy-4-methylpiperidin-1-yl)propan-2-yl)-7a-methyloctahydro-4H-inden-4-ylidene)ethylidene)-4-methylenecyclohexane-1,3-diol]
10 to 100	C=C1/C(=C\C=C2/CCC[C@]3(C)[C@@H]([C@H](C)CN4CCO[C@H](C(F)F)C4)CC[C@@H]23)C[C@@H](O)C[C@@H]1O [Compound D005, (1R,3S,Z)-5-(2-((1R,3aS,7aR,E)-1-((S)-1-((S)-2-(difluoromethyl)morpholino)propan-2-yl)-7a-methyloctahydro-4H-inden-4-ylidene)ethylidene)-4-methylenecyclohexane-1,3-diol]
1 to 10	C=C1[C@H](O)CC(=C/C=C2\CCC[C@]3(C)[C@@H]([C@H](C)CCN4C[C@@H](C)OC[C@H]4C)CC[C@@H]23)C[C@H]1O [Compound D039, (1R,3R)-5-(2-((1R,3aS,7aR,E)-1-((R)-4-((2R,5R)-2,5-dimethylmorpholino)butan-2-yl)-7a-methyloctahydro-4H-inden-4-ylidene)ethylidene)-2-methylenecyclohexane-1,3-diol]
10 to 100	C=C1[C@H](O)CC(=C/C=C2\CCC[C@]3(C)[C@@H]([C@H](C)CN4CCOC[C@@H]4C)CC[C@@H]23)C[C@H]1O [Compound D015, (1R,3R)-5-(2-((1R,3aS,7aR,E)-7a-methyl-1-((S)-1-((S)-3-methylmorpholino)propan-2-yl)octahydro-4H-inden-4-ylidene)ethylidene)-2-methylenecyclohexane-1,3-diol]
